Structures can show the parent of a compound that is named as a salt.
Tests used:
IRAK4 = target: T1, IRAK4 (Homo sapiens, UniProt Q9NWZ3); experiment: Target protein degradation in K562 IRAK4-HiBiT cells (Nano-Glo HiBiT assay); type: cell-based; settings: K562, read-out: Maximum Degradation Rate
T1 construct: expressed in transfected cells; host or cells: K562 IRAK4-HiBiT cells
T1 sequence (Q9NWZ3 1-460): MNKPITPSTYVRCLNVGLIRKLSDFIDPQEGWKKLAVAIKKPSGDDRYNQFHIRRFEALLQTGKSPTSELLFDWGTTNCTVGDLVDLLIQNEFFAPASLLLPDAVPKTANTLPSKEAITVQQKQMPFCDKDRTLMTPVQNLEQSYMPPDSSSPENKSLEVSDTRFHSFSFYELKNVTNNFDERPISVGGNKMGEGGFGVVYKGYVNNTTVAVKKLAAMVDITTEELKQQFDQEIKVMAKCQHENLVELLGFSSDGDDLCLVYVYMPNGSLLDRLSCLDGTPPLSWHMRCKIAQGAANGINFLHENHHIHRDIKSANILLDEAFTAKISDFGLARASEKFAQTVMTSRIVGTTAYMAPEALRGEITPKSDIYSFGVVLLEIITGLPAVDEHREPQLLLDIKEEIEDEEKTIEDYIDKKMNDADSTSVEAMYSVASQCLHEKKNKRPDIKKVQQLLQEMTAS
Method: Objective: In this experiment, the degradation effect of the compound of formula (I) on the target protein IRAK4 in K562 IRAK4-HiBiT cells was detected.
• Cells: K562 IRAK4-HiBiT cells • Culture medium: RPMI 1640 + 10% fetal bovine serum + 2 mM glutamine + 1 mM sodium pyruvate + penicillin/streptomycin • Positive control: 1000 nM; negative control: 0.1% DMSO Table 7. Reagents and consumables […]
• (1) The cell culture medium was discarded, and the cells were washed once with DPBS, digested with trypsin, and counted to prepare a cell suspension of […]. • (2) 25 µL/well of cell suspension was added to the assay plate containing the test compound using Multidrop Combi at medium speed. • (3) The assay plate containing cells was returned to an incubator with 5% CO2 at 37°C and incubated for 16 to 18 hours.
• (1) 25 µL/well of assay reagent (NanoGlo lysis buffer + substrate + LgBit protein) was added to the assay plate using Multidrop Combi at high speed, and the plate was shaken for 10 minutes. • (2) The plate was centrifuged at 2000 rpm for 1 minute to remove air bubbles. • (3) The plate was read on Envision using US Luminescence detection method. […]

IKZF1 = target: T2, IKZF1 (Homo sapiens, UniProt Q13422+Q96SW2); experiment: In cell western analysis of IKZF1 protein expression level in MM.1S cells; type: cell-based; settings: MM1.S, read-out: Maximum Degradation Rate Dmax
T2 construct: expression levels of IKZF1 and IKZF3 proteins in MM.1S cells; host or cells: MM.1S cells
T2 sequence (Q13422 whole entry): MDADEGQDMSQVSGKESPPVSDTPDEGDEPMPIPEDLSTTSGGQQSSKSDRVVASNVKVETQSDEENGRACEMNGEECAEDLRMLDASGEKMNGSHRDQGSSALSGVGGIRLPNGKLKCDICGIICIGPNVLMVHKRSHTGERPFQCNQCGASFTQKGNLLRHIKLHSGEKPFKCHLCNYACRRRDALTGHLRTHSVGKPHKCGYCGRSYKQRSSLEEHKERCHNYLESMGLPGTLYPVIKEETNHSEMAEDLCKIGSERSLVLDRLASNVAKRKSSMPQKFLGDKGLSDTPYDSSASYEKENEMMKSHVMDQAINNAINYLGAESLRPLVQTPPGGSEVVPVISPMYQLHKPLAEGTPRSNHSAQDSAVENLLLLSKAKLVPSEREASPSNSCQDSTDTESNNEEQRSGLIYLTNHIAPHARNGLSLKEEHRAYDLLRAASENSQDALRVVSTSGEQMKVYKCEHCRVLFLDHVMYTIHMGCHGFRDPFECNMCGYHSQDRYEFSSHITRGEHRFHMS
T2 sequence (Q96SW2 whole entry): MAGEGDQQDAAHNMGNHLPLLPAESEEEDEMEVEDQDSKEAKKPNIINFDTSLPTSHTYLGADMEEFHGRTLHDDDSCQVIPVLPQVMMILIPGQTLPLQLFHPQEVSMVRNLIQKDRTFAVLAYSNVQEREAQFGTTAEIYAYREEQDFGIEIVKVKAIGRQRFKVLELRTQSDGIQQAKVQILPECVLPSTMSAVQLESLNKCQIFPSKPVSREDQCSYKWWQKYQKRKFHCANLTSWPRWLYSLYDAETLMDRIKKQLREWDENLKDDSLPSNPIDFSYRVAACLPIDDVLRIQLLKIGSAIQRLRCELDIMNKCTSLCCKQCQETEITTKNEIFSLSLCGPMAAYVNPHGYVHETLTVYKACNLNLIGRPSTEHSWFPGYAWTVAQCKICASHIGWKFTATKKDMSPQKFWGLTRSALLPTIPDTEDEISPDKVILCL
T2 sequence (Q16531 whole entry partner): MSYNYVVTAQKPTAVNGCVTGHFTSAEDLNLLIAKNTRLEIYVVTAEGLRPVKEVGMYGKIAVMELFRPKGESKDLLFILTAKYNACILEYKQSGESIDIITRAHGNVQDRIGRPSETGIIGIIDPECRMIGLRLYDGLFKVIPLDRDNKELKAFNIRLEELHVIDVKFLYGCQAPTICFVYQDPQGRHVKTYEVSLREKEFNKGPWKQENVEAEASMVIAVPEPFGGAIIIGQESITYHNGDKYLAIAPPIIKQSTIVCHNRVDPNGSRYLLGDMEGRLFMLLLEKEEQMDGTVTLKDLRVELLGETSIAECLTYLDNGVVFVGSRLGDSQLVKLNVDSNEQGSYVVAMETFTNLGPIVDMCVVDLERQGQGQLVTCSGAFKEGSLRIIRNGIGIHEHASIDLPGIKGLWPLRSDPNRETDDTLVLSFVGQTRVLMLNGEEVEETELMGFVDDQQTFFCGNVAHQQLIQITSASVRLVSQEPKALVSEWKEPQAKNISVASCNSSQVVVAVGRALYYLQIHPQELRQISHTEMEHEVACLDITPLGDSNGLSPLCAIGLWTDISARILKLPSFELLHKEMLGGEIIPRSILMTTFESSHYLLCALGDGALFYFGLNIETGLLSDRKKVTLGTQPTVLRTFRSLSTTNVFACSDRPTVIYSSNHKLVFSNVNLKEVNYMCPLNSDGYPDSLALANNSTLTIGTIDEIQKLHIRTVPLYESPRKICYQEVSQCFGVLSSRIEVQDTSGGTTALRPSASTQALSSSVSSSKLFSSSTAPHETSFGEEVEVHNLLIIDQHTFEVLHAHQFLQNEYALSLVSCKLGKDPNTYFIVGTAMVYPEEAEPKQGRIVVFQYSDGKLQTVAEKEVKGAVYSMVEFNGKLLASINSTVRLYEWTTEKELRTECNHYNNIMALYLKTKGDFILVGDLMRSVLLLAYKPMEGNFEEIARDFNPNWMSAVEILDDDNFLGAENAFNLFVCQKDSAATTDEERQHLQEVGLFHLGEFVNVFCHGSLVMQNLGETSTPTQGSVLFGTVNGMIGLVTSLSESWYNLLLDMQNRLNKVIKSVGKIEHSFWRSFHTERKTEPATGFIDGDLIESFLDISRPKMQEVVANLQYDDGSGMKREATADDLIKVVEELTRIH
Method: (§1) Objective: The experiment was conducted to evaluate the degradation effects of the compound of formula (I) on IKZF1 and IKZF3 proteins in MM.1S cells by detecting their impact on the expression levels of IKZF1 and IKZF3 proteins in MM.1S cells.
(§2) • Cell line: MM.1S cell (obtained from ATCC; Cat. No. CRL-2974) • Negative control: 0.1% DMSO Table 10. Reagents and consumables
(§3) • 1) MM.1S cells in the logarithmic growth phase were seeded into a 96-well plate at 1.2×10^5 cells per well and cultured overnight. • 2) On the second day, drug treatment was initiated with a starting concentration of 300 nM, followed by a 3-fold dilution in triplicate wells, with 10 concentration gradients (containing DMSO), and incubated for 24 hours in a culture incubator. • 3) The mixture was centrifuged, and the cell supernatant was carefully removed. […]
(§4) GraphPad Prism 6 software was utilized to fit the curve with the inhibition rate data, and the DC50 value was calculated.

IKZF3 = target: T3, IKZF3 (Homo sapiens, UniProt Q96SW2+Q9UKT9); experiment: In cell western analysis of IKZF3 protein expression level in MM.1S cells; type: cell-based; settings: MM1.S, read-out: Maximum Degradation Rate Dmax
T3 construct: expression levels of IKZF1 and IKZF3 proteins in MM.1S cells; host or cells: MM.1S cells
T3 sequence (Q9UKT9 whole entry): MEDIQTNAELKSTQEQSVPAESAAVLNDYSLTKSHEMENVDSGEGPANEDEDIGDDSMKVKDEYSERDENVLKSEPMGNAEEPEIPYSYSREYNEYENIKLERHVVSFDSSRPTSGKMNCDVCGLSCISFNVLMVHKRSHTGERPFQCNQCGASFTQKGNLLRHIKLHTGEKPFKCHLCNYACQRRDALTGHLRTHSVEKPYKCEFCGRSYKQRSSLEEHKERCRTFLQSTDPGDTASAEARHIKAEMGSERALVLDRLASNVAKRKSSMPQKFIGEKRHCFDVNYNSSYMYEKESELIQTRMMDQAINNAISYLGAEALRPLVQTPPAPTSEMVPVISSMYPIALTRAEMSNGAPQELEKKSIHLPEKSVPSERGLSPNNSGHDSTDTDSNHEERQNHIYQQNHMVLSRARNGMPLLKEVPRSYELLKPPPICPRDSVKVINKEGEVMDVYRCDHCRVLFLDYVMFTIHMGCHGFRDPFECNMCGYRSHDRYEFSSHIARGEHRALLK
T3 sequence (Q96SW2 whole entry): as the sequence (Q96SW2 whole entry) above
T3 sequence (Q16531 whole entry partner): as the sequence (Q16531 whole entry partner) above
Method: as §1, §2, §3, §4

[1] = Pharmacokinetic evaluation in mice; type: in vivo, C57BL/6 or C57 male mice
From the text: C57BL/6 or C57 male mice were selected as the test animals for this study. The LC/MS/MS method was employed to quantitatively determine the plasma drug concentrations at various time points after intravenous injection or intragastric administration of the test compound, aiming to evaluate the pharmacokinetic characteristics of the compound of the present disclosure in mice.
C57BL/6 or C57 mice (male, 20 to 30g, 7 to 10 weeks old, Beijing Vital River).
A clear solution of the test compound was injected intravenously into the tail vein of C57BL/6 mice (fasted overnight) (vehicle: 10% DMSO/10% solutol/80% H2O), or administered intragastrically to C57 mice (fed). […] The mixture was thoroughly vortexed and mixed, and centrifuged at 6000 g for 3 minutes at 2 to 8°C. […] The mixture was thoroughly vortexed and mixed, and centrifuged at 6000 g for 3 minutes at 2 to 8°C. Plasma drug concentrations were determined by the LC-MS/MS method, and relevant pharmacokinetic parameters were calculated using Phoenix WinNonlin 8.2.0 pharmacokinetic software with non-compartmental model linear-log trapezoidal method.

[2] = Pharmacokinetic evaluation in beagle dogs; type: in vivo, Male beagle dogs; settings: fed
Method: Male beagle dogs were selected as the experimental animals in this study.
Beagle dogs (male, 7 to 10 kg, Beijing Mars Biotechnology Co., Ltd.).
A clear solution of the test compound was slowly injected intravenously into beagle dogs (fed) via the peripheral vein (vehicle: 5% DMSO/10% Solutol/85% H2O), or administered intragastrically to beagle dogs (fed). For intravenous administration, 0.5 mL of blood was collected from the peripheral vein at 0.083, 0.25, 0.5, 1, 2, 4, 6, 8, and 24 h after administration, placed in EDTA-2K anticoagulant tubes, and centrifuged at 3200 g for 10 minutes at 2 to 8°C to separate the supernatant. For intragastric administration, 0.5 mL of blood was collected from the peripheral vein at 0.083, 0.25, 0.5, 1, 2, 4, 6, 8, and 24 h after administration, placed in EDTA-2K anticoagulant tubes, and centrifuged at 3200 g for 10 minutes at 2 to 8°C to separate the supernatant. Plasma drug concentrations were determined by the LC-MS/MS method, and relevant pharmacokinetic parameters were calculated using Phoenix WinNonlin 6.3 pharmacokinetic software with non-compartmental model linear-log trapezoidal method.

[3] = Intragastric Administration (10 mg/kg) (fed)
[4] = Intragastric Administration (5 mg/kg)

O=C1CCC(c2noc3ccc4c(NC(=O)CN5CCN(C[C@H]6CC[C@H](n7cc(NC(=O)c8coc(-c9ccnc(NCC%10CC%10)c9)n8)c(C(F)F)n7)CC6)CC5)cccc4c23)C(=O)N1 (stereo partly drawn) [Hydrochloride of Compound of Formula (I)]
Dmax (IRAK4): 108%
Dmax (IKZF1): 72.3%
Dmax (IKZF3): 73.5%
Area Under the Drug-Time Curve (0-inf) [1, 3]: 4.47 µM·h
Peak Concentration [1, 3]: 0.54 µM
Area Under the Drug-Time Curve (0-inf) ([1]; Intravenous Injection (2 mg/kg) (fasted)): 5.40 µM·h
Area Under the Drug-Time Curve (0-inf) [2, 4]: 3.20 µM·h
Peak Concentration [2, 4]: 0.41 µM
Area Under the Drug-Time Curve (0-inf) ([2]; Intravenous Injection (0.5 mg/kg)): 0.44 µM·h
